Measurements as given in patent US10227323B2, “Glucosylceramide synthase inhibitors for the treatment of diseases” (BIOMARIN PHARMACEUTICAL INC., priority 2013, dated 2019).

Target: T1, GCS (Canis lupus familiaris, UniProt A0A8I3MXG6)
T1 sequence (A0A8I3MXG6 1-394): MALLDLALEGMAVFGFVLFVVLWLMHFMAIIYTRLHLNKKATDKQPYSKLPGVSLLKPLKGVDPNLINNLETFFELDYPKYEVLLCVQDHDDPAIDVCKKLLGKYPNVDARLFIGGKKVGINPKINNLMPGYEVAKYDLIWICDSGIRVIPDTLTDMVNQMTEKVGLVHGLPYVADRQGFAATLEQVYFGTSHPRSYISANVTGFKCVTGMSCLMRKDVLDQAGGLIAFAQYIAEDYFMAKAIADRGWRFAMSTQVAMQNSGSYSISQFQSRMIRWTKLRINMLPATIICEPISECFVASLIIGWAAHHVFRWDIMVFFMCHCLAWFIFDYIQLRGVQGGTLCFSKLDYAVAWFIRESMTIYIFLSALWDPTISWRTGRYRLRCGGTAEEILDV
Experiment: Assay 1: GCS Enzymatic Assay (MDCK cell lysate, C6-NBD-Ceramide, LC/MS)
Format: biochemical, canine
Settings: Table 2; for IC50: data without asterisk, read-out: IC50 (nM) generated from Assay 1; for % inhibition generated from Assay 1: data marked by *
Outline: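 LC/MS/MS measurement of glucosylceramide and NBD-ceramide after a 1 h, 37 °C reaction with 100 μM UDP-glucose and 10 μM C6-NBD-ceramide gave IC50s or percent inhibition.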

Structure (SMILES)	IC50 [nM]	% inhibition generated from Assay 1
O=C(N[C@H](CN1CCCC1)[C@H](O)c1cc(F)c2c(c1)OCCO2)C(=O)c1ccc(-c2ccc(F)cc2)cc1 [Compound 133, N-((1R,2R)-1-(8-fluoro-2,3-dihydrobenzo[b][1,4]dioxin-6-yl)-1-hydroxy-3-(pyrrolidin-1-yl)propan-2-yl)-2-(4′-fluoro-[1,1′-biphenyl]-4-yl)-2-oxoacetamide]	< 50	–
O=C(N[C@H](CN1CCC1)[C@H](O)c1ccc(OC2CC2)c(Cl)c1)C(F)(F)CCc1ccc2cc(F)ccc2c1 [Compound 134, N-((1R,2R)-3-(azetidin-1-yl)-1-(3-chloro-4-cyclopropoxyphenyl)-1-hydroxypropan-2-yl)-2,2-difluoro-4-(6-fluoronaphthalen-2-yl)butanamide]	–	A* (the compound had a % inhibition of a percent inhibition of greater than or equal to about 50%)
O=C(N[C@H](CN1CCCC1)[C@H](O)c1cc(F)c2c(c1)OCCO2)C(F)(F)c1ccc2cc(Cl)ccc2c1 [Compound 135, 2-(6-chloronaphthalen-2-yl)-2,2-difluoro-N-((1R,2R)-1-(8-fluoro-2,3-dihydrobenzo[b][1,4]dioxin-6-yl)-1-hydroxy-3-(pyrrolidin-1-yl)propan-2-yl)acetamide]	< 50	–
O=C(N[C@H](CN1CCCC1)[C@H](O)c1ccc(OC2CC2)c(Cl)c1)/C(=N/O)c1cc2cc(Cl)ccc2o1 [Compound 136, (E)-N-((1R,2R)-1-(3-chloro-4-cyclopropoxyphenyl)-1-hydroxy-3-(pyrrolidin-1-yl)propan-2-yl)-2-(5-chlorobenzofuran-2-yl)-2-(hydroxyimino)acetamide]	< 50	–
O=C(N[C@H](CN1CCC1)[C@H](O)c1ccc(OC2CC2)c(Cl)c1)/C(CCc1ccc2cc(F)ccc2c1)=N/O [Compound 137, (E)-N-((1R,2R)-3-(azetidin-1-yl)-1-(3-chloro-4-cyclopropoxyphenyl)-1-hydroxypropan-2-yl)-4-(6-fluoronaphthalen-2-yl)-2-(hydroxyimino)butanamide]	–	B* (the compound had a % inhibition of greater than or equal to about 3% but less than about 50%)
O=C(N[C@H](CN1CCCC1)[C@H](O)c1cc(F)c2c(c1)OCCO2)/C(=N/O)c1ccc(-c2ccc(F)cc2)cc1 [Compound 138, (E)-N-((1R,2R)-1-(8-fluoro-2,3-dihydrobenzo[b][1,4]dioxin-6-yl)-1-hydroxy-3-(pyrrolidin-1-yl)propan-2-yl)-2-(4′-fluoro-[1,1′-biphenyl]-4-yl)-2-(hydroxyimino)acetamide]	< 50	–
O=C(N[C@H](CN1CCCC1)[C@H](O)c1ccc(OC2CC2)c(Cl)c1)C(F)(F)c1ccc2cc(Cl)ccc2c1 [Compound 139, N-((1R,2R)-1-(3-chloro-4-cyclopropoxyphenyl)-1-hydroxy-3-(pyrrolidin-1-yl)propan-2-yl)-2-(6-chloronaphthalen-2-yl)-2,2-difluoroacetamide]	–	A* (the compound had a % inhibition of a percent inhibition of greater than or equal to about 50%)
O=C(N[C@H](CN1CCCC1)[C@H](O)c1cc(F)c2c(c1)OCCO2)C(F)(F)c1ccc(-c2ccc(F)cc2)cc1 [Compound 140, 2,2-difluoro-N-((1R,2R)-1-(8-fluoro-2,3-dihydrobenzo[b][1,4]dioxin-6-yl)-1-hydroxy-3-(pyrrolidin-1-yl)propan-2-yl)-2-(4′-fluoro-[1,1′-biphenyl]-4-yl)acetamide]	< 50	–
O=C(N[C@H](CN1CCC1)[C@H](O)c1cc(F)c2c(c1)OCCO2)/C(CCc1ccc2ccccc2c1)=N/O [Compound 141, (E)-N-((1R,2R)-3-(azetidin-1-yl)-1-(8-fluoro-2,3-dihydrobenzo[b][1,4]dioxin-6-yl)-1-hydroxypropan-2-yl)-2-(hydroxyimino)-4-(naphthalen-2-yl)butanamide]	< 50	–
O=C(N[C@H](CN1CCCC1)[C@H](O)c1ccc(OC2CC2)c(Cl)c1)/C(CCc1ccc2ccccc2c1)=N/O [Compound 142, (E)-N-((1R,2R)-1-(3-chloro-4-cyclopropoxyphenyl)-1-hydroxy-3-(pyrrolidin-1-yl)propan-2-yl)-2-(hydroxyimino)-4-(naphthalen-2-yl)butanamide]	< 50	–
O=C(CCc1ccc2ccccc2c1)C(=O)N[C@H](CN1CCCC1)[C@H](O)c1cc(F)c2c(c1)OCCO2 [Compound 143, N-((1R,2R)-1-(8-fluoro-2,3-dihydrobenzo[b][1,4]dioxin-6-yl)-1-hydroxy-3-(pyrrolidin-1-yl)propan-2-yl)-4-(naphthalen-2-yl)-2-oxobutanamide]	< 50	–
O=C(N[C@H](CN1CCC1)[C@H](O)c1ccc2c(c1)OCCO2)C(F)(F)CCc1ccc2ccccc2c1 [Compound 144, N-((1R,2R)-3-(azetidin-1-yl)-1-(2,3-dihydrobenzo[b][1,4]dioxin-6-yl)-1-hydroxypropan-2-yl)-2,2-difluoro-4-(naphthalen-2-yl)butanamide]	< 50	–
O=C(CCc1ccc2ccccc2c1)C(=O)N[C@H](CN1CCC1)[C@H](O)c1cc(F)c2c(c1)OCCO2 [Compound 145, N-((1R,2R)-3-(azetidin-1-yl)-1-(8-fluoro-2,3-dihydrobenzo[b][1,4]dioxin-6-yl)-1-hydroxypropan-2-yl)-4-(naphthalen-2-yl)-2-oxobutanamide]	–	A* (the compound had a % inhibition of a percent inhibition of greater than or equal to about 50%)
O=C(N[C@H](CN1CCCC1)[C@H](O)c1ccc(OC2CCOCC2)c(Cl)c1)C(F)(F)c1ccc2cc(Cl)ccc2c1 [Compound 146, N-((1R,2R)-1-(3-chloro-4-((tetrahydro-2H-pyran-4-yl)oxy)phenyl)-1-hydroxy-3-(pyrrolidin-1-yl)propan-2-yl)-2-(6-chloronaphthalen-2-yl)-2,2-difluoroacetamide]	< 50	–
O=C(CCc1ccc2ccccc2c1)C(=O)N[C@H](CN1CCCC1)[C@H](O)c1ccc(OC2CC2)c(Cl)c1 [Compound 147, N-((1R,2R)-1-(3-chloro-4-cyclopropoxyphenyl)-1-hydroxy-3-(pyrrolidin-1-yl)propan-2-yl)-4-(naphthalen-2-yl)-2-oxobutanamide]	–	A* (the compound had a % inhibition of a percent inhibition of greater than or equal to about 50%)
O=C(N[C@H](CN1CCCC1)[C@H](O)c1cc(F)c2c(c1)OCCO2)/C(CCc1ccc2ccccc2c1)=N/O [Compound 148, (E)-N-((1R,2R)-1-(8-fluoro-2,3-dihydrobenzo[b][1,4]dioxin-6-yl)-1-hydroxy-3-(pyrrolidin-1-yl)propan-2-yl)-2-(hydroxyimino)-4-(naphthalen-2-yl)butanamide]	< 50	–
O=C(N[C@H](CN1CCCC1)[C@H](O)c1ccc(OC2CC2)c(Cl)c1)C(=O)c1ccc(-c2ccc(F)cc2)cc1 [Compound 149, N-((1R,2R)-1-(3-chloro-4-cyclopropoxyphenyl)-1-hydroxy-3-(pyrrolidin-1-yl)propan-2-yl)-2-(4′-fluoro-[1,1′-biphenyl]-4-yl)-2-oxoacetamide]	< 50	–
O=C(N[C@H](CN1CCC1)[C@H](O)c1cc(F)c2c(c1)OCCO2)C(=O)c1ccc(-c2ccc(F)cc2)cc1 [Compound 150, N-((1R,2R)-3-(azetidin-1-yl)-1-(8-fluoro-2,3-dihydrobenzo[b][1,4]dioxin-6-yl)-1-hydroxypropan-2-yl)-2-(4′-fluoro-[1,1′-biphenyl]-4-yl)-2-oxoacetamide]	< 50	–
O=C(N[C@H](CN1CCCC1)[C@H](O)c1cc(F)c2c(c1)OCCO2)C(=O)c1ccc2cc(Cl)ccc2c1 [Compound 151, 2-(6-chloronaphthalen-2-yl)-N-((1R,2R)-1-(8-fluoro-2,3-dihydrobenzo[b][1,4]dioxin-6-yl)-1-hydroxy-3-(pyrrolidin-1-yl)propan-2-yl)-2-oxoacetamide]	< 50	–
O=C(N[C@H](CN1CCCC1)[C@H](O)c1ccc(OC2CCOCC2)c(Cl)c1)C(=O)c1ccc(-c2ccc(F)cc2)cc1 [Compound 152, N-((1R,2R)-1-(3-chloro-4-((tetrahydro-2H-pyran-4-yl)oxy)phenyl)-1-hydroxy-3-(pyrrolidin-1-yl)propan-2-yl)-2-(4′-fluoro-[1,1′-biphenyl]-4-yl)-2-oxoacetamide]	< 50	–
O=C(N[C@H](CN1CCCC1)[C@H](O)c1ccc(OC2CC2)c(Cl)c1)/C(=N/O)c1ccc(-c2ccc(F)cc2)cc1 [Compound 153, (E)-N-((1R,2R)-1-(3-chloro-4-cyclopropoxyphenyl)-1-hydroxy-3-(pyrrolidin-1-yl)propan-2-yl)-2-(4′-fluoro-[1,1′-biphenyl]-4-yl)-2-(hydroxyimino)acetamide]	< 50	–
O=C(CCc1ccc2cc(F)ccc2c1)C(=O)N[C@H](CN1CCC1)[C@H](O)c1ccc(OC2CC2)c(Cl)c1 [Compound 154, N-((1R,2R)-3-(azetidin-1-yl)-1-(3-chloro-4-cyclopropoxyphenyl)-1-hydroxypropan-2-yl)-4-(6-fluoronaphthalen-2-yl)-2-oxobutanamide]	–	B* (the compound had a % inhibition of greater than or equal to about 3% but less than about 50%)
O=C(N[C@H](CN1CCC1)[C@H](O)c1cc(F)c2c(c1)OCCO2)/C(=N/O)c1ccc(-c2ccc(F)cc2)cc1 [Compound 155, (E)-N-((1R,2R)-3-(azetidin-1-yl)-1-(8-fluoro-2,3-dihydrobenzo[b][1,4]dioxin-6-yl)-1-hydroxypropan-2-yl)-2-(4′-fluoro-[1,1′-biphenyl]-4-yl)-2-(hydroxyimino)acetamide]	< 50	–
